Measured values taken from patent publication US20210069176A1, “Treating Autoimmune Disorders with Chloroquine and/or Hydroxychloroquine” (Attillaps Holdings, priority 2018, published 2021).

Experiments:
Demodex mites = experiment: in vitro Demodex survival time assay
Description: FIG. 4 summarizes the activity of 10% chloroquine in water relative to a water control on activity against Demodex mites in an in vitro assay, with an LT50 of 31.6 hours for chloroquine compared to 44.8 hours for the water control, illustrating the inactivation effect of chloroquine on Demodex.
Example 4: In vitro efficacy and mite lifetimes: Relative efficacy of various formulations are evaluated with a demodex survival time experiments. FIG. 3 tabulates demodex survival time, expressed in terms of LT50 (time at which 50% of demodex mites are killed) and/or average minutes to death for various active agents.

[1] = dichlorvos 1%, one patient; cited from earlier work

Row | SMILES | LT50 (time at which 50% of demodex mites are killed) (Demodex mites; 10% chloroquine in water, water control 44.8 hours, FIG. 4) | activity against Demodex mites (Demodex mites; in vitro assay, FIG. 3) | remission of Papulopostular Rosacea (PPR) [1]
1 | CCN(CC)CCCC(C)Nc1ccnc2cc(Cl)ccc12 (stereo not drawn) [chloroquine] | 31.6 h | has activity against Demodex mites | –
2 | COP(=O)(OC)OC=C(Cl)Cl [dichlorvos] | – | – | complete and continued remission
